Measurements taken from article PMC8922281, “Synthesis and In Vitro Biological Evaluation of Quinolinyl Pyrimidines Targeting Type II NADH-Dehydrogenase (NDH-2)” (ACS Infectious Diseases, 2022).
Converted amounts (≈) assume the structure as drawn.

Tests used:
MsNDH-2 = MsNDH-2 (Mycolicibacterium smegmatis, UniProt A0QYD6); assay: Inhibition of MsNDH-2 (NADH oxidation with menadione, absorbance at 340 nm); assay type: biochemical, M. smegmatis
[1] = tested on: E. coli (ATCC 25922, wild-type); assay: MIC on ESKAPE pathogens, E. coli wild-type; assay type: cell-based; settings: Escherichia coli, ATCC25922; E. coli ATCC 25922, wild-type; read-out: MIC Ec WT
[2] = tested on: E. coli (ΔtolC efflux-defective mutant, isogenic to ATCC 25922); assay: microbe, parasite or virus in culture; assay type: cell-based; settings: Escherichia coli, ATCC25922, read-out: MIC Ec ΔtolC
[3] = tested on: E. coli (D22, lpxC mutant, drug-hypersensitive); assay: microbe, parasite or virus in culture; assay type: cell-based; settings: Escherichia coli, read-out: MIC Ec D22
[4] = tested on: P. aeruginosa (PAO1, wild-type); assay: MIC on ESKAPE pathogens, P. aeruginosa wild-type; assay type: cell-based; settings: Pseudomonas aeruginosa, PAO1, P. aeruginosa PAO1, wild-type; read-out: MIC Pa WT
[5] = tested on: P. aeruginosa (PAO750 efflux-defective mutant, isogenic to PAO1); assay: microbe, parasite or virus in culture; assay type: cell-based; settings: Pseudomonas aeruginosa, PAO1, read-out: MIC Pa efflux
[6] = tested on: A. baumannii (ATCC 19606, wild-type); assay: MIC on ESKAPE pathogens, A. baumannii; assay type: cell-based; settings: Acinetobacter baumannii, ATCC19606; A. baumannii ATCC 19606, wild-type; read-out: MIC Ab WT
[7] = tested on: S. aureus (ATCC 29213, wild-type); assay: MIC on ESKAPE pathogens, S. aureus; assay type: cell-based; settings: Staphylococcus aureus, ATCC29213
[8] = tested on: M. tuberculosis strain H37Rv (ATCC 25618); assay: MIC on M. tuberculosis by resazurin reduction microplate assay (REMA); assay type: cell-based; settings: Mycobacterium tuberculosis, M. tuberculosis H37Rv, read-out: MIC Mtb
[9] = Cytotoxicity on the MRC-5 cell line (resazurin); assay type: cell-based; settings: human, MRC-5SV2 cells, MRC-5SV2, 3 days
Protocol: MRC-5SV2 cells were cultured in Earl’s MEM + 5% FCSi. Assays were performed in 96-well microtiter plates, each well containing about 10^4 cells/well. After 3 days of incubation with or without compounds, cell viability was assessed fluorimetrically after the addition of resazurin (λex 550 nm, λem 590 nm). The results were expressed as % reduction in cell growth/viability compared to untreated control wells and CC50 was determined. Testing/retesting strategy was as described above for HepG2 cells.

[10] = tested on: K. pneumonia (ATCC 13833, wild-type); assay: MIC on ESKAPE pathogens, K. pneumoniae
[11] = 95% confidence interval in parentheses, 50 nM enzyme, 50 μM menadione, >100: no significant inhibition at 100 μM
[12] = same IC50 given in μg/mL to assist comparisons with MICs

Chain of MsNDH-2 (A0QYD6 1-457): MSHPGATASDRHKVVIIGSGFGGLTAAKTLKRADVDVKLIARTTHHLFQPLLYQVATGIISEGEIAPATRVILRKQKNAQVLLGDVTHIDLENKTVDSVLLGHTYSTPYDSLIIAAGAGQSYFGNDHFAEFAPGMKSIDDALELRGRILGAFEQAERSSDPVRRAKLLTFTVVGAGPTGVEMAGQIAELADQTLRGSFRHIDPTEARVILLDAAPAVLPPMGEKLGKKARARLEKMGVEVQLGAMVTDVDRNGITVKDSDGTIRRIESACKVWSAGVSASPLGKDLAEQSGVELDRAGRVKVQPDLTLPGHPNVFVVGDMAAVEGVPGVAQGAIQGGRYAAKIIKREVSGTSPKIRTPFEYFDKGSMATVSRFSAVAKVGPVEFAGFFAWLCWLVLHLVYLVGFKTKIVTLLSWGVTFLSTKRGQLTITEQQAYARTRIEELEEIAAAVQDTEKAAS

| Structure (SMILES) | IC50 (MsNDH-2; [11]) [µM] | IC50 (MsNDH-2; [12]) [µM] | MIC [1] [µg/mL] | MIC [2] [µg/mL] | MIC [3] [µg/mL] | MIC [4] [µg/mL] | MIC [5] [µg/mL] | MIC [6] [µg/mL] | MIC [7] [µg/mL] | MIC [8] [µg/mL] | IC50 at 3 days ([9]; resazurin) [µM] | IC50 at 3 days ([9]; value in parentheses) [µg/mL] | MIC Kp WT [10] [µg/mL] |
| --- | --- | --- | --- | --- | --- | --- | --- | --- | --- | --- | --- | --- | --- |
| Nc1nc(Cl)cc(Nc2ccc3nc(-c4ccc(F)cc4)cc(N)c3c2)n1 [Compound 7, N^6-(2-Amino-6-chloropyrimidin-4-yl)-2-(4-fluorophenyl)quinoline-4,6-diamine] | 3.1 | 3.15 | > 128 | 64 (≈ 168 µM) | 16 (≈ 42 µM) | > 128 | 16 (≈ 42 µM) | 2 (≈ 5.25 µM) | 4 (≈ 10.5 µM) | 4.7 (≈ 12.3 µM) | 1.1 | 0.4 | >128 |
| Nc1nc(Nc2ccc3nc(-c4ccc(F)cc4)cc(N)c3c2)cc(N2CCOCC2)n1 [Compound 8b, N^6-(2-Amino-6-morpholinopyrimidin-4-yl)-2-(4-fluorophenyl) quinoline-4,6-diamine] | > 100 | > 99.7 | 64 (≈ 148 µM) | 16 (≈ 37.1 µM) | 16 (≈ 37.1 µM) | ≥ 64 | 32 (≈ 74.2 µM) | 16 (≈ 37.1 µM) | 32 (≈ 74.2 µM) | – | – | – | 64 (≈ 148 µM) |
| NCC1CCN(c2cc(Nc3ccc4nc(-c5ccc(F)cc5)cc(N)c4c3)nc(N)n2)CC1 [Compound 8h, N^6-(2-Amino-6-(4-(aminomethyl)piperidin-1-yl)pyrimidin-4-yl)-2-(4-fluorophenyl)quinoline-4,6-diamine] | 6.9 | 6.98 | 64 (≈ 140 µM) | 16 (≈ 34.9 µM) | 8 (≈ 17.4 µM) | 4 (≈ 8.72 µM) | 8 (≈ 17.4 µM) | > 128 | 32 (≈ 69.8 µM) | > 46 | 8 | 3.7 | >128 |
| Nc1nc(Nc2ccc3nc(-c4ccc(F)cc4)ccc3c2)cc(N2CCNCC2)n1 [Compound 21, N^4-(2-(4-Fluorophenyl)quinolin-6-yl)-6-(piperazin-1-yl)pyrimidine-2,4-diamine] | 32 | 31.3 | 16 (≈ 38.5 µM) | 8 (≈ 19.3 µM) | 16 (≈ 38.5 µM) | > 64 | 4 (≈ 9.63 µM) | 32 (≈ 77 µM) | 8 (≈ 19.3 µM) | 22.3 (≈ 53.7 µM) | 8 | 3.3 | 64 (≈ 154 µM) |
| Fc1ccc(-c2ccc3cc(Nc4cc(N5CCNCC5)ncn4)ccc3n2)cc1 [Compound 23, 2-(4-Fluorophenyl)-N-(6-(piperazin-1-yl)pyrimidin-4-yl)quinolin-6-amine] | 24 | 24 | > 64 | 8 (≈ 20 µM) | 16 (≈ 40 µM) | > 64 | 4 (≈ 9.99 µM) | 64 (≈ 160 µM) | 8 (≈ 20 µM) | 7.1 (≈ 17.7 µM) | 7.9 | 3.2 | 64 (≈ 160 µM) |
